Where “and” joins values, the source holds several entries; their conditions need not be identical. Identical values can stand only once. Entries after “also recorded” stand apart in the source; their conditions may differ. Like-named read-outs stand apart in the source and are kept apart here.
How the values were obtained:
mammary gland = experiment: Mammary gland wholemount morphology after E in OVX mice; format: in vivo, BALB/c female mice
Experimental: (§1) Ten-week-old or 9-12 month-old BALB/c female mice from our own colony were bilaterally ovariectomized (OVX) under Nembutal anesthesia 1 or 5 weeks prior to E treatment. […] Injection was chosen as the method of systemic administration to optimize precision and reproducibility of hormone dosage. Serum levels of E were determined after OVX and E injection by radioimmunoassay using a commercial kit (Diagnostic Products Corp., Los Angeles, Calif.) according to the suppliers instructions. […] Therefore, in all experiments except time course studies, mammary glands were analyzed at 72 h after E treatment for DNA histoautoradiogrpahy and at 96 h after E treatment for morphological analysis.

[1] = system: mammary epithelial and stromal cells; experiment: DNA histoautoradiography (3H-thymidine labeling index) after E in OVX mice; format: in vivo, BALB/c female mice; conditions: for maximum proliferative response, 5 wk vs 1 wk post OVX: dose response study
Experimental: Ten-week-old or 9-12 month-old BALB/c female mice from our own colony were bilaterally ovariectomized (OVX) under Nembutal anesthesia 1 or 5 weeks prior to E treatment. […] Injection was chosen as the method of systemic administration to optimize precision and reproducibility of hormone dosage.
At various times after E injection, animals received a single ip injection of [^3H]thymidine in a dosage of 2 μCi/g BW 1 h before sacrifice. The mammary glands were removed, fixed and processed as wholemounts followed by embedding and sectioning for histoautcradiographic analysis as described previously. Histological sections were examined at 400× magnification to determine the DNA labeling indices (LIs) of epithelial and stromal cells. […] In parallel, stromal cell LIs were determined for areas adjacent to and distal from duct ends. Adjacent areas were defined to be within […] of the duct end (i.e. in the same microscope field at 400× magnification) and the distal areas were defined to be more than 400 μm away from the duct end. A minimum of 10 individual structures were evaluated for each of 5-9 mice per experimental group.

[2] = system: progesterone receptor (PR); experiment: Steroid hormone binding assay ([3H]R5020) for PR concentration after E; format: in vivo, BALB/c female mice
Experimental: To determine PR concentration, cytoplasmic extracts were prepared separately for mammary gland and uteri as described previously (Haslam, S. Z., et al., Endocrinol 108:825-830 (1981)). Mammary gland and uterine cytoplasmic extracts were incubated with a single saturating concentration of 20 nM [^3H]R5020 with 100-fold excess radioinert dexamethasone (for suppression of progestin binding to glucocorticoid receptors) or with 100-fold excess radioinert R5020. Specific binding was determined using a dextran-coated charcoal assay procedure as previously described (Haslam, S. Z., et al., Endocrinol 108:825-830(1981)). Tissue DNA was quantitated as previously described (Ceriotti, G., J Biol Chem 198:297-303 (1952)).

[3] = Serum levels of E by radioimmunoassay; format: in vivo, BALB/c female mice; conditions: female, BALB/c, mouse, 24 h after injection of 1 μg E at 5 wks post OVX, n=4, read-out: E serum level
Experimental: as §1

PR = PR immunohistochemistry/immunofluorescence after E; format: in vivo, mice
From the text: A dissociation between E stimulation of cell proliferation and PR regulation in mouse mammary gland has previously been reported (Fendrick, J. L., et al., J Mammary Gland Biol Neoplasia 3:7-22 (1998)). Although E appears to mediate proliferation of epithelial cells indirectly via stroma, E acts directly in epithelial cells to increase PR levels (Haslam, S. Z., Endocrinol 122:860-867 (1988)). Thus, our observations of increased responsiveness to the proliferative effect, but decreased responsiveness to the PR regulatory effect of E indicate that mammary epithelial and stromal cells are affected differently by long-term OVX. To confirm this observation, we have also used immunohistochemical analysis to determine the percentage of PR positive cells and PR concentration per cell, using a fluorescein-conjugated secondary antibody detection system, similar to the ER immunofluorescence assay herein. […] Future studies are planned to determine the mechanistic basis of these different responses to OVX. A similar dissociation of estrogenic regulation of proliferation and PR level has recently been reported for normal human breast (Clark, R. B., et al., Cancer Res 57:4987-4991 (1997)). […] In contrast, since ER and PR do co-localize in the same cells, E appears to act directly to regulate PR in breast epithelial cells. […]

[4] = system: progesterone receptor (PR); experiment: PR ligand binding assay, time course of E induction of PR; format: in vivo, BALB/c virgin mice; conditions: for increase in PR levels: single injection of E
Experimental: Hormone- or control-treated mammary glands were analyzed for progesterone receptor (PR) levels using a dextran-coated charcoal ligand binding assay (Haslam, S. G., Endocrinology 195:789-795 (1979)). Tissue DNA was quantitated as previously described (Ceriotti, G., J Biol Chem 198:297-303 (1952)).

[5] = system: MCF-7 human breast carcinoma cell line; conditions: cited from earlier work
mammary gland duct ends = experiment: Elvax implants of RU486 or ICI 182,780: duct end enlargement in E+P injected OVX mice; format: in vivo, BALB/c virgin mice; conditions: for reduction of number of enlarged duct ends induced by E+P: implant vs control implant; for number of enlarged duct ends (mean ± S.E.M.) per implanted mammary gland: 3 days E + P
Experimental: Ten-week old BALB/c virgin mice from our own colony were bilaterally ovariectomized 1 or 5 weeks (wks) before hormone treatment. All mice received sc daily injections of 1 μg 17b-estradiol (E)+1 mg progesterone (P) as a suspension in 0.04% gum arabic in 0.85% NaCl; control groups received vehicle only. The E+P dosage was determined from previous studies on mouse mammary gland (Magnusson, C., et al., Int J Cancer 81:339-344 (1999); and Beral V., et al., Lancet 350:1047-1059 (1997)) on the basis that it produced modest sidebranching and alveolar bud development ([…]., Endocrinology 122:464-470 (1998)), and resembled the normal breast tissue of postmenopausal women who had received […]., et al., J Clin Endocrinol Metab 84:4559-4565 (1999)). […] The effects of the implants on the mammary gland were quantified morphometrically by capturing a digitized microscopic image of the mammary gland wholemount at 10× magnification using NIH/Image One software. The numbers and size of duct ends were measured within a 2 cm radius of the implant. Duct ends were considered to be enlarged if they were 1.0 mm or greater in diameter at the 10× magnification.

[6] = 24 hr after E injection, 5 wk post OVX

C[C@]12CC[C@@H]3c4ccc(O)cc4CC[C@H]3[C@@H]1CC[C@@H]2O [E, 17β-estradiol]
percentage of mammary glands exhibiting stimulation of duct ends (mammary gland; 5 wk post OVX, after E treatment (single ip 1 μg, 4 days later)): 100% | extent of stimulatory response to E as a function of time after ovariectomy (mammary gland; 9-12 month old mice, OVX 1, 3 or 5 weeks prior to E): identical to that obtained in 10-week-old mice | effect on mammary gland morphology (mammary gland; E treatment at 1 wk post OVX): no effect on morphology | effect on mammary gland morphology (mammary gland; E treatment at 5 wk post OVX (late postmenopausal)): pronounced enlargement of duct ends; also recorded: produced enlarged duct ends | time of maximal morphological response after E injection (mammary gland; mouse, in vivo): 96 h | morphological and DNA synthesis results (mammary gland; ovariectomized plus adrenalectomized mice): identical to those obtained with ovariectomy alone | stimulation of DNA synthesis in stromal cells adjacent to duct ends, 5 wk vs 1 wk post OVX ([1]; 1 μg E, 72 h): 4 fold | ED 50 of E-induced proliferation ([1]; 1 vs 5 wk post OVX): identical | DNA synthesis in ducts ([1]; E-treated, 1 and 5 wk post OVX): little or no DNA synthesis | maximal epithelial proliferative response, 5 wk vs 1 wk post OVX ([1]; after 3 days of daily sc E injection): 2.6 fold | increased proliferative response in mammary stromal cells ([1]; after long-term OVX (discussion)): 3 fold | E-induced stimulation of DNA synthesis in duct ends, 5 wk vs 1 wk post OVX ([1]; duct end epithelium, 1 μg E, 72 h): 6.5 fold | maximum proliferative response, 5 wk vs 1 wk post OVX ([1]; epithelial cells, 72 h): 5.6 fold | steady state stromal cell proliferation, 5 wk vs 1 wk post OVX ([1]; long-term daily E treatment): 2 fold | steady state epithelial proliferation, 5 wk vs 1 wk post OVX ([1]; long-term daily E treatment up to 28 days): 2 fold and 2.3 fold | time of maximal DNA synthesis / proliferative response after E injection ([1]; mammary epithelial and stromal cells): 72 h | maximum proliferative response, 5 wk vs 1 wk post OVX ([1]; stromal cells, 72 h): 2.5 fold | increase in PR in mammary gland ([2]; 12, 24 and 36 h after E injection, 5 wk post OVX): No increase | increase in PR binding in mammary gland ([2]; 24 hr after E injection, 1 wk post OVX): 2.5 fold | increase in PR binding in mammary gland [2, 6]: failed to increase; also recorded: no significant increase | increase in PR in uteri [2, 6]: 8 fold | concentration at 24 h [3]: 0.031 ± 0.0078 ng/mL | increase in PR concentration per cell (PR; 1 wk post OVX E-treated mammary glands): 2 fold | numbers of PR positive cells or amount of PR per cell (PR; 5 wk post OVX E-treated glands): no significant increase | number of daily E injections until PR levels increased above control ([4]; 5 wk post OVX): 7 daily E injections | increase in PR levels ([4]; 1 wk post OVX): 2.5 fold and 2 fold | increase in PR levels ([4]; 5 wk post OVX): failed to increase PR levels | dose for maximal proliferative response ([5]; MCF-7 cells deprived of estrogen for 1-6 months): 10^−14 M | dose for maximal proliferative response ([5]; MCF-7 cells, not estrogen-deprived): 10^−10 M

C[C@]12CC[C@@H]3c4ccc(O)cc4C[C@@H](CCCCCCCCC[S+]([O-])CCCC(F)(F)C(F)(F)F)[C@H]3[C@@H]1CC[C@@H]2O (stereo partly shown) [ICI 182,780]
reduction of number of enlarged duct ends induced by E+P (mammary gland duct ends; 5 wk post OVX): 8 fold | number of enlarged duct ends (mean ± S.E.M.) per implanted mammary gland (mammary gland duct ends; late postmenopause (5 wk post OVX), 0.1 μg ICI 182,780 implant, n = 8): 1.0 ± 1.0

CC#C[C@]1(O)CC[C@H]2[C@@H]3CCC4=CC(=O)CCC4=C3[C@@H](c3ccc(N(C)C)cc3)C[C@@]21C [RU486]
reduction of number of enlarged duct ends induced by E+P (mammary gland duct ends; 1 wk post OVX): 9 fold | number of enlarged duct ends (mean ± S.E.M.) per implanted mammary gland (mammary gland duct ends; early postmenopause (1 wk post OVX), 0.1 μg RU486 implant): 0.75 ± 0.25 | number of enlarged duct ends (mean ± S.E.M.) per implanted mammary gland (mammary gland duct ends; late postmenopause (5 wk post OVX), 0.1 μg RU486 implant): 9.0 ± 1.0

— patent US6583334B1, “Ovariectomized mouse model for human menopause” (Board of Trustees operating Michigan State University, priority 2000, dated 2003)
